As usually defined, the IC50 is the point on the concentration scale where inhibition reaches its midpoint. Read a low IC50 as higher potency.

The target of the assay is T1, Lipoxygenase (type I-B) (Glycine max, UniProt P08170).
T1 sequence (P08170 1-839): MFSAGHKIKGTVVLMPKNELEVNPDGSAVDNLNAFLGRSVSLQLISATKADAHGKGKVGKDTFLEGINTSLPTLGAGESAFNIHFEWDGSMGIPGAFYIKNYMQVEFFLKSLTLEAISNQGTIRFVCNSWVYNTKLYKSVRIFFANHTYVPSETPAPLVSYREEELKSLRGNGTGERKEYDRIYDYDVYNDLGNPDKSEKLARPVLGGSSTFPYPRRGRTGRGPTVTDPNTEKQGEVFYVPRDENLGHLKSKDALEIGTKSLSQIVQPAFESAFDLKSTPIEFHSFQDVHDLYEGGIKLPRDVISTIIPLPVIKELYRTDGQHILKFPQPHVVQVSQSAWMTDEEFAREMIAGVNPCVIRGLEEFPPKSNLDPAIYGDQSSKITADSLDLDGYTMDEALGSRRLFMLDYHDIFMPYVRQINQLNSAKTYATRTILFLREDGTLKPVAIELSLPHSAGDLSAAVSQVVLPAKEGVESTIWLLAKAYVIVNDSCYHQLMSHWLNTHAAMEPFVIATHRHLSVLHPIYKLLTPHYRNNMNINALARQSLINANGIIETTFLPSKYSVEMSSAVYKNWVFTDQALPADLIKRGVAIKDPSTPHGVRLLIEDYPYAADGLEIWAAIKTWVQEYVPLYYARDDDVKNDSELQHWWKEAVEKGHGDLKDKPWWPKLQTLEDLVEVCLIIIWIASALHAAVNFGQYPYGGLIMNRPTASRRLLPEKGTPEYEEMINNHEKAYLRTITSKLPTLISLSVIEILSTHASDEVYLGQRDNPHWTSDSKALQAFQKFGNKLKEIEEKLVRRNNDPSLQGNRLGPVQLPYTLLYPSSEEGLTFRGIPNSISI
As to the kind of experiment: absorbance at […] nm, linoleic acid oxidation. The class given is biochemical.

In turn, `C[C@H]1C(=O)CC[C@@H]2[C@]1(C)CC[C@H]1[C@@]2(C)CC[C@@]2(C)[C@@H]3CC(C)(C)CC[C@]3(C)CC[C@]12C` [compound 1, friedelin] gave an IC50 of 57.3 µM.

On to `CC1(C)C[C@@H](O)[C@]2(C)CC[C@]3(C)C(=CC[C@@H]4[C@@]5(C)CC[C@H](O)C(C)(C)[C@@H]5CC[C@]43C)[C@@H]2C1` [compound 3, sopharadiol], for which the IC50 was 54 µM.
